Reference: paper PMC6277767, “Broad and Region-Specific Impacts of the Synthetic Cannabinoid CP 55,940 in Adolescent and Adult Female Mouse Brains” (Frontiers in Molecular Neuroscience, 2018)

System: CD1 female mouse brain lipidome
Assay: Brain-region lipid levels (HPLC/MS/MS lipidomics) 2 h after single i.p. 3 mg/kg CP 55,940 vs vehicle
Format: in vivo
Parameters: N-arachidonoyl phenylalanine level, Mean / N-stearoyl tryptophan level, Mean / N-stearoyl proline level, Mean / N-stearoyl leucine level, Mean / N-stearoyl phenylalanine level, Mean / N-stearoyl serine level, Mean / N-stearoyl methionine level, Mean: unit: moles per gram
Conditions: hypothalamus
Protocol: The Bloomington Institutional Animal Care and Use Committee of Indiana University reviewed and approved the animal procedures. Female mice from the CD1 strain were utilized to match our study examining THC’s effects on the brain lipidome ([Leishman et al., 2018]). Mice were given a single i.p. injection of either 3 mg/kg CP or 1:1:18 cremophor:ethanol:saline vehicle (please refer to the section “3 mg/kg CP Is Relevant for Synthetic Cannabinoid Abuse and Has Stronger Effects on the Female Mouse Brain Lipidome During Adolescence” for a justification of dose and use of female mice). Three different age groups were given injections: PND 35 and PND 50 adolescents, and adult mice (PND 113). At least eight mice in each age group received CP and at least eight received vehicle. Matching the THC study time course ([Leishman et al., 2018]), mice were sacrificed via rapid decapitation 2 h after injection. Brains were immediately removed and flash-frozen in liquid nitrogen, and then stored at -80°C until dissections were performed. Brains were dissected on an ice-cold dissection plate into the following regions: STR, HIPP, CER, THAL, CTX, HYP, MID, and STEM. These abbreviations for these brain areas will be used exclusively when discussing the results generated by these specific dissections. Each dissected area was immediately placed in liquid nitrogen and then stored at -80°C until used for lipid extraction.
Tissue extracts were performed as previously described ([Bradshaw et al., 2006]; [Stuart et al., 2013]; [Raboune et al., 2014]; [Leishman et al., 2016a],[b], [2017], [2018]). First, samples were shock frozen in liquid nitrogen, weighed, and transferred to a centrifuge tube. The mass of the largest sample was multiplied by 50 to determine how many milliliters of HPLC-grade methanol (Fisher, Fair Lawn, NJ, United States) to add. Then, samples were spiked with 500 pmol deuterium-labeled NAGly (d8NAGly; Cayman Chemical, Ann Arbor, MI, United States). Samples were placed on ice in darkness for 2 h then individually homogenized and centrifuged at 19,000 × g for 20 min at 20°C. Supernatants were diluted with HPLC water (purified in house) to make a solution of 75% water, 25% supernatant. Lipids were partially purified on C18 solid phase extraction columns (Agilent, Palo Alto, CA, United States). A series of four elutions with 1.5 mL of 60%, 75%, 85%, and 100% methanol were collected ([Stuart et al., 2013]; [Leishman et al., 2016a],[b], [2018]).
As previously described ([Bradshaw et al., 2006]; [Tan et al., 2006]; [Smoum et al., 2010]; [Stuart et al., 2013]; [Tortoriello et al., 2013]; [Raboune et al., 2014]; [Leishman et al., 2016a],[b], [2017], [2018]), samples were analyzed using an Applied Biosystems API 3000 triple quadrupole mass spectrometer with electrospray ionization (Foster City, CA, United States). Using an Agilent XDB-C18 reversed phase analytical column and optimized mobile phase gradients, 20 μL from each elution were chromatographed. Two Shimadzu 10ADvp pumps (Columbia, MD, United States) provided the pressure for gradient elution. Mobile phase A: 20% methanol, 80% water (v/v) and 1 mM ammonium acetate (Sigma, St. Louis, MO, United States). Mobile phase B: 100% methanol, 1 mM ammonium acetate. Every method run began with 0% mobile phase B, reached 100% mobile phase B flowing at 0.2 mL/min, and gradually returned to 0% mobile phase B.
This screening library will be referred to as the lipidome when discussing data from this study. HPLC/MS/MS data were analyzed using Analyst software (Applied Biosystems) ([Bradshaw et al., 2006]; [Tan et al., 2006]; [Stuart et al., 2013]; [Tortoriello et al., 2013]; [Raboune et al., 2014]; [Leishman et al., 2016a],[b], [2017], [2018]). Chromatograms (Supplementary Figure 3) were generated by determining the retention time of analytes from the analytical column with a [M-1] or [M+1] parent peak and a fragmentation peak corresponding to the programmed values. […]

[1] = PND 50 female mice, 3mg/kg CP 55,940
[2] = PND 35 adolescent female mice, 3 mg/kg

CCCCCCC(C)(C)c1ccc([C@@H]2C[C@H](O)CC[C@H]2CCCO)c(O)c1 [CP 55,940] was tested. Which “N-docosahexaenoyl methionine level, Mean” value [1] did it give?
Its value is “BDL”.

And the “N-docosahexaenoyl phenylalanine level, Mean” value [1]?
Its value is “PISSR”.

And the “N-docosahexaenoyl proline level, Mean” value [1]?
Its value is “BDL”.

What about the “N-docosahexaenoyl serine level, Mean” value [1] of the same compound?
Its value is “PISSR”.

And the “N-docosahexaenoyl tryptophan level, Mean” value [1]?
The value was “BDL”.

What about the “N-docosahexaenoyl tyrosine level, Mean” value [1] of the same compound?
Its value is “BDL”.

And the “N-docosahexaenoyl valine level, Mean” value [1]?
The value was “BDL”.

And the “N-linoleoyl GABA level, Mean” value [1]?
The value was “PISSR”.

And the “N-linoleoyl alanine level, Mean” value [1]?
Its value is 3.81E-13.

What about the “N-linoleoyl ethanolamine level, Mean” value [1] of the same compound?
The value was 3.47E-11.

What about the “N-linoleoyl glycine level, Mean” value [1] of the same compound?
Its value is 1.12E-13.

What about the “N-linoleoyl leucine level, Mean” value [1] of the same compound?
Its value is “PISSR”.

What about the “N-linoleoyl methionine level, Mean” value [1] of the same compound?
Its value is “BDL”.

What about the “N-linoleoyl phenylalanine level, Mean” value [1] of the same compound?
Its value is “PISSR”.

What about the “N-linoleoyl proline level, Mean” value [1] of the same compound?
The value was “BDL”.

And the “N-linoleoyl serine level, Mean” value [1]?
The value was 1.7E-10.

And the “N-linoleoyl tryptophan level, Mean” value [1]?
The value was “BDL”.

What about the “N-linoleoyl tyrosine level, Mean” value [1] of the same compound?
The value was “BDL”.

And the “N-linoleoyl valine level, Mean” value [1]?
Its value is “BDL”.

What about the “N-nervonoyl valine level, Mean” value [1] of the same compound?
Its value is “BDL”.

What about the “N-oleoyl GABA level, Mean” value [1] of the same compound?
The value was 1.97E-12.

What about the “N-oleoyl alanine level, Mean” value [1] of the same compound?
Its value is 2.61E-12.

What about the “N-oleoyl dopamine level, Mean” value [1] of the same compound?
Its value is “BDL”.

And the “N-oleoyl ethanolamine level, Mean” value [1]?
Its value is 8.36E-11.

What about the “N-oleoyl glycine level, Mean” value [1] of the same compound?
Its value is 5.38E-13.

And the “N-oleoyl leucine level, Mean” value [1]?
Its value is 3.54E-13.

What about the “N-oleoyl methionine level, Mean” value [1] of the same compound?
Its value is “PISSR”.

And the “N-oleoyl phenylalanine level, Mean” value [1]?
The value was 6.88E-13.

What about the “N-oleoyl proline level, Mean” value [1] of the same compound?
The value was “BDL”.

What about the “N-oleoyl serine level, Mean” value [1] of the same compound?
Its value is 3.07E-10.

And the “N-oleoyl tryptophan level, Mean” value [1]?
The value was “BDL”.

And the “N-oleoyl tyrosine level, Mean” value [1]?
Its value is 1.89E-13.

And the “N-oleoyl valine level, Mean” value [1]?
Its value is “PISSR”.

What about the “N-palmitoyl GABA level, Mean” value [1] of the same compound?
The value was 6.6E-12.

What about the “N-palmitoyl alanine level, Mean” value [1] of the same compound?
Its value is 6.9E-12.

What about the “N-palmitoyl ethanolamine level, Mean” value [1] of the same compound?
Its value is 6.24E-11.

And the “N-palmitoyl glycine level, Mean” value [1]?
The value was 3.58E-12.

What about the “N-palmitoyl leucine level, Mean” value [1] of the same compound?
The value was 1.26E-12.

And the “N-palmitoyl methionine level, Mean” value [1]?
The value was 9.4E-13.

And the “N-palmitoyl phenylalanine level, Mean” value [1]?
The value was 1.3E-12.

What about the “N-palmitoyl proline level, Mean” value [1] of the same compound?
The value was “BDL”.

And the “N-palmitoyl serine level, Mean” value [1]?
The value was 3.09E-11.

And the “N-palmitoyl tryptophan level, Mean” value [1]?
The value was “BDL”.

What about the “N-palmitoyl tyrosine level, Mean” value [1] of the same compound?
The value was 4.12E-13.

What about the “N-palmitoyl valine level, Mean” value [1] of the same compound?
The value was 2.32E-13.

And the “N-stearoyl GABA level, Mean” value [1]?
The value was 7.69E-12.

And the “N-stearoyl alanine level, Mean” value [1]?
The value was 9.94E-13.

And the “N-stearoyl ethanolamine level, Mean” value [1]?
The value was 3.67E-11.

And the “N-stearoyl glycine level, Mean” value [1]?
Its value is 5.58E-13.

What about the “N-stearoyl leucine level, Mean” value [1] of the same compound?
The value was 9.96E-13.

And the “N-stearoyl methionine level, Mean” value [1]?
Its value is 5.57E-13.

What about the “N-stearoyl phenylalanine level, Mean” value [1] of the same compound?
The value was 1.28E-12.

And the “N-stearoyl proline level, Mean” value [1]?
Its value is “BDL”.

What about the “N-stearoyl serine level, Mean” value [1] of the same compound?
Its value is 5.5E-11.

And the “N-stearoyl tryptophan level, Mean” value [1]?
Its value is “BDL”.

And the “N-stearoyl tyrosine level, Mean” value [1]?
The value was 1.01E-13.

What about the “Oleic acid level, Mean” value [1] of the same compound?
The value was 2.82E-10.

What about the “PGE2 level, Mean” value [1] of the same compound?
Its value is 7.14E-11.

And the “PhosphoLEA level, Mean” value [1]?
The value was 1.12E-11.

And the “THC level, Mean” value [1]?
Its value is “BDL”.

And the “2-arachidonoyl glycerol level, Mean” value [2]?
Its value is 6.64E-10.

What about the “2-linoleoyl glycerol level, Mean” value [2] of the same compound?
Its value is 5.43E-11.

What about the “2-oleoyl glycerol level, Mean” value [2] of the same compound?
Its value is 7.45E-10.

And the “2-palmitoyl glycerol level, Mean” value [2]?
Its value is 7.93E-10.

What about the “6-ketoPGF1α level, Mean” value [2] of the same compound?
The value was 1.71E-11.

And the “Arachidonic acid level, Mean” value [2]?
The value was 3.33E-09.

What about the “Linoleic acid level, Mean” value [2] of the same compound?
Its value is 2.5E-10.

And the “N- stearoyl valine level, Mean” value [2]?
Its value is 1.41E-12.

And the “N-arachidonoyl GABA level, Mean” value [2]?
Its value is 3.93E-11.

What about the “N-arachidonoyl alanine level, Mean” value [2] of the same compound?
The value was 5.15E-12.

And the “N-arachidonoyl ethanolamine level, Mean” value [2]?
The value was 5.6E-12.

What about the “N-arachidonoyl glycine level, Mean” value [2] of the same compound?
Its value is 5.39E-12.

And the “N-arachidonoyl phenylalanine level, Mean” value [2]?
The value was 7.34E-13.

What about the “N-arachidonoyl taurine level, Mean” value [2] of the same compound?
Its value is 1.56E-11.

And the “N-docosahexaenoyl GABA level, Mean” value [2]?
The value was 5.25E-12.

What about the “N-docosahexaenoyl ethanolamine level, Mean” value [2] of the same compound?
The value was 1.68E-11.

And the “N-docosahexaenoyl glycine level, Mean” value [2]?
The value was 4.59E-13.

And the “N-linoleoyl alanine level, Mean” value [2]?
The value was 4.26E-12.

And the “N-linoleoyl ethanolamine level, Mean” value [2]?
Its value is 1.7E-11.

And the “N-linoleoyl glycine level, Mean” value [2]?
The value was 3.45E-13.

And the “N-linoleoyl serine level, Mean” value [2]?
The value was 6.26E-11.

And the “N-oleoyl GABA level, Mean” value [2]?
The value was 2.02E-11.

And the “N-oleoyl alanine level, Mean” value [2]?
Its value is 1.14E-11.

And the “N-oleoyl ethanolamine level, Mean” value [2]?
Its value is 1.79E-10.

And the “N-oleoyl glycine level, Mean” value [2]?
The value was 3.5E-12.

What about the “N-oleoyl leucine level, Mean” value [2] of the same compound?
The value was 3.49E-13.

And the “N-oleoyl phenylalanine level, Mean” value [2]?
The value was 1.8E-12.

And the “N-oleoyl serine level, Mean” value [2]?
Its value is 2.72E-10.

What about the “N-oleoyl valine level, Mean” value [2] of the same compound?
Its value is 3.31E-13.

And the “N-palmitoyl GABA level, Mean” value [2]?
The value was 3.44E-11.

What about the “N-palmitoyl alanine level, Mean” value [2] of the same compound?
The value was 3.03E-11.

What about the “N-palmitoyl ethanolamine level, Mean” value [2] of the same compound?
Its value is 4.49E-11.

And the “N-palmitoyl glycine level, Mean” value [2]?
The value was 1.16E-11.

What about the “N-palmitoyl leucine level, Mean” value [2] of the same compound?
Its value is 2.12E-12.

What about the “N-palmitoyl methionine level, Mean” value [2] of the same compound?
Its value is 5.5E-12.

And the “N-palmitoyl phenylalanine level, Mean” value [2]?
Its value is 4.4E-12.

What about the “N-palmitoyl serine level, Mean” value [2] of the same compound?
Its value is 1.07E-11.

What about the “N-palmitoyl tyrosine level, Mean” value [2] of the same compound?
Its value is 1.52E-12.

And the “N-palmitoyl valine level, Mean” value [2]?
Its value is 1.65E-12.

And the “N-stearoyl GABA level, Mean” value [2]?
The value was 3.84E-11.

What about the “N-stearoyl alanine level, Mean” value [2] of the same compound?
Its value is 1.89E-11.

What about the “N-stearoyl ethanolamine level, Mean” value [2] of the same compound?
Its value is 3.64E-11.

And the “N-stearoyl glycine level, Mean” value [2]?
The value was 8.37E-12.
